Measurements reported in patent publication US7291641B2, “Derivatives of heterocycles with 5 members, their preparation and their use as medicaments” (Societe de Conseils de Recherches et d'Applications …, priority 1999, dated 2007).
Counter-ions that a name gives are not always drawn.

SMILES | melting point
CCCCOC(=O)NCCc1nc(-c2ccc(-c3ccc(C(F)(F)F)cc3)cc2)c[nH]1 [Example 452, butyl 2-{4-[41-(trifluoromethyl)-1,1′-biphenyl-4-yl]-1H-imidazol-2-yl}ethylcarbamate] | 168.5 °C
FC(F)(F)c1cccc(-c2c[nH]c([C@@H](NCC3CCCCC3)C3CCCCC3)n2)c1 [Example 305, (S)-1-cyclohexyl-N-(cyclohexylmethyl)-1-{4-[3-(trifluoromethyl)-phenyl]-1H-imidazol-2-yl}methanamine] | 143.9 °C
CCCCC(NC(=O)OC(C)(C)C)c1nc(-c2ccc(-c3ccccc3)cc2)c[nH]1 (racemic) [Example 59, (R,S)-4-(2-{1-[(tert-butoxycarbonyl)amino]pentyl}-1H-imidazol-4-yl)-1,1′-biphenyl] | 172 to 176 °C
CCCCC(NCc1ccccc1)c1nc(-c2ccc(-c3ccccc3)cc2)c[nH]1 (racemic) [Example 60, (R,S)—N-benzyl-1-(4-[1,1′-biphenyl]4-yl-1H-imidazol-2-yl)-1-pentanamine] | 201 to 203 °C
COCCOC(=O)NCCc1nc(-c2ccc(-c3ccccc3)cc2)c[nH]1 [Example 288, 4-[2-(2-{[(2-methoxyethoxy)carbonyl]amino}ethyl)-1H-imidazol-4-yl]-1,1′-biphenyl] | 123.3 °C
CCC[C@@H](N)c1nc(-c2ccc(-c3ccccc3)cc2)c[nH]1 (as salt: hydrochloride) [Example 209, (1R)-1-(4-[1,1′-biphenyl]-4-yl-1H-imidazol-2-yl)-1-butanamine] | 155.4 °C
Fc1ccc(-c2c[nH]c([C@@H](NC3CCCCC3)C3CCCCC3)n2)cc1 [Example 283, N-{(S)-cyclohexyl[4-(4-fluorophenyl)-1H-imidazol-2-yl]methyl}-cyclohexanamine] | 260 to 262 °C
c1ccc(-c2c[nH]c([C@@H](NC3CCCCC3)C3CCCCC3)n2)cc1 [Example 243, N-[(S)-cyclohexyl(4-phenyl-1H-imidazol-2-yl)methyl]-cyclohexanamine] | 240 to 242 °C
O=C(N[C@H](Cc1c[nH]c2ccccc12)c1nc(-c2ccccc2)c[nH]1)OCc1ccccc1 [Example 99, benzyl (1R)-2-(1H-indol-3-yl)-1-(4-phenyl-1H-imidazol-2-yl)ethylcarbamate] | 105 to 108 °C
CCCCCCC(N)c1nc(-c2ccc(Cl)c(Cl)c2)c[nH]1 (racemic) (as salt: hydrochloride) [Example 231, (R,S)-1-[4-(3,4-dichlorophenyl)-1H-imidazol-2-yl]-1-heptanamine] | 148 to 150 °C
CCCCCCC(NC1CCC1)c1nc(-c2ccccc2)c[nH]1 (racemic) [Example 240, (R,S)-N-[1-(4-phenyl-1H-imidazol-2-yl)heptyl]cyclobutanamine] | 148 to 150 °C

Continued, values first:

melting point | SMILES
94 to 98 °C | CCCCCCC(NCCC)c1nc(-c2ccccc2)c[nH]1 (racemic) [Example 224, (R,S)-N-[1-(4-phenyl-1H-imidazol-2-yl)heptyl]-N-propylamine]
172 to 174 °C | CCCCCCC(NC1CCCCC1)c1nc(C2CCCCC2)c[nH]1 (stereo not shown) [Example 36, N-[1-(4-cyclohexyl-1H-imidazol-2-yl)heptyl]cyclohexanamine]
152 to 154 °C | CCCCCCNCCc1nc(-c2ccc(-c3ccccc3)cc2)c[nH]1 [Example 176, N-[2-(4-[1,1′-biphenyl]-4-yl-1H-imidazol-2-yl)ethyl]-1-hexanamine]
157.3 °C | O=C(NCCc1nc(-c2ccc(-c3ccccc3)cc2)c[nH]1)OCCCC(F)(F)F [Example 345, 4,4,4-trifluorobutyl 2-[4-(1,1′-biphenyl-4-yl)-1H-imidazol-2-yl]ethylcarbamate]
148 to 150 °C | CCCCCCC(N)c1nc(-c2ccc(F)cc2)c[nH]1 (racemic) (as salt: hydrochloride) [Example 220, (R,S)-1-[4-(4-fluorophenyl)-1H-imidazol-2-yl]-1-heptanamine]
138.4 °C | CCCCOC(=O)NCCc1nc(-c2ccc(C3CCCCC3)cc2)c[nH]1 [Example 268, butyl 2-[4-(4-cyclohexylphenyl)-1H-imidazol-2-yl]ethylcarbamate]
148 to 152 °C | CC(C)(NC(=O)OCc1ccccc1)c1nc(-c2ccc(-c3ccccc3)cc2)c[nH]1 [Example 247, 4-[2-(1-{[(benzyloxy)carbonyl]amino}-1-methylethyl)-1H-imidazol-4-yl]-1,1′-biphenyl]
99.7 °C | CCCCOC(=O)NCCc1nc(-c2ccc(-c3ccccc3Cl)cc2)c[nH]1 [Example 454, butyl 2-[4-(2′-chloro-1,1′-biphenyl-4-yl)-1H-imidazol-2-yl]ethylcarbamate]
